Assay results: EP2311457A1, “Pharmaceutical compositions for treating infections with drug resistant mycobacteria” (priority 2009, dated 2011)
In brackets after ≈: the same amount, converted by molar mass.

Legend:
[1] = system: Mtb H37Rv ATCC 272945; assay: Drug susceptibility testing, radiometric MIC determination (BACTEC 460TB); conditions: Mycobacterium tuberculosis, ATCC272945|H37RV, read-out: minimal inhibitory concentrations
Protocol: Drug susceptibility testing (DST) was performed with the broth-based radiometric BACTEC 460TB system (Becton Dickinson Diagnostic Systems, Sparks, MD) which is considered the laboratory "gold standard". The standard protocol for DST and determination of MICs was strictly followed as recommended by the manufacturers.

[2] = system: Murine bone marrow derived macrophages

SMILES	MIC [1] [µg/mL]	toxicity as measured by MTT assay [2]
C(=NNc1nncc2ccccc12)c1ccc(OCc2ccccc2)cn1 [PH22-6, 5-benzyloxypyridine-2-aldehyde-1'-phthalazinylhydrazone]	5 (≈ 14.1 µM)	
Cc1ccc(C=NNc2ccc3ccccc3n2)nc1 [PH22-14, 5-methylpyridine-2-aldehyde-2'-quinolylhydrazone]	0.5 (≈ 1.91 µM)	
c1ccc(C(=NNc2ccc3ccccc3n2)c2ccccn2)cc1 [PH22-15, 2-benzoylpyridine-2'-quinolylhydrazone]	0.25 (≈ 0.771 µM)	
Cc1ccc(C=NNc2nncc3ccccc23)nc1 [PH22-16, 5-methyl-pyridine-2-aldehyde-1'-phthalazinylhydrazone]	< 1	
c1ccc(C(=NNc2nncc3ccccc23)c2ccccn2)cc1 [PH22-22, 2-benzoylpyridine-1'-phthalazinylhydrazone]	5 (≈ 15.4 µM)	
Cc1cccc(NN=Cc2ccccn2)n1 [PH22-31, pyridine-2-aldehyde-6'-methyl-2'-pyridylhydrazone]	< 1	
CCc1ccc(C=NNc2cc(OC)ncn2)nc1 [PH22-33, 5-ethylpyridine-2-aldehyde-6'-methoxy-4'-pyrimidylhydrazone]	< 0.125	No toxicity was observed
C(=NNc1ccccn1)c1ccc(OCc2ccccc2)cn1 [PH22-49, 5-benzyloxypyridine-2-aldehyde-2'-pyridylhydrazone]	5 (≈ 16.4 µM)	
Clc1ccc(NN=Cc2ccc(OCc3ccccc3)cn2)nn1 [PH22-51, 5-benzyloxypyridine-2-aldehyde-6'-chloro-3'-pyridazinylhydrazone]	1 (≈ 2.94 µM)	
C(=NNc1ncnc2ccccc12)c1ccc(OCc2ccccc2)cn1 [PH22-52, 5-benzyloxypyridine-2-aldehyde-4'-quinazolinylhydrazone]	1 to 5 (≈ 2.81 to 14.1 µM)	
